Patent US20240059691A1 (KALVISTA PHARMACEUTICALS LIMITED, priority 2020, published 2024)

Assays:
[1] = target: Plasma Kallikrein (Homo sapiens (Human), UniProt P03952); assay: Determination of related protease inhibition: Plasma Kallikrein (fluorogenic substrate at Km); assay type: biochemical; settings: 25° C., read-out: IC50 (human PKal)
Method in brief: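 Human protease + fluorogenic substrate (at Km) + test cpd, varied concns; fluorescence kinetic read 5 min, 25 °C. Linear slope → % activity vs uninhibited control; IC50 at 50% inhibition.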

[2] = target: Human Factor XIIa (Homo sapiens (Human), UniProt P00748); assay: Determination of FXIIa inhibition (fluorogenic substrate H-DPro-Phe-Arg-AFC, IC50 assay); assay type: biochemical; settings: substrate H-DPro-Phe-Arg-AFC at Km, 25° C.; class scale A-G
Method in brief: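 Human FXIIa incubated at 25° C with fluorogenic substrate H-DPro-Phe-Arg-AFC at its Km concentration and varying compound concentrations. Fluorescence release monitored over 5 min at 25° C; linear rate expressed as % of uninhibited activity to derive IC50.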

Human Factor XIIa, sequence (P00748 373-615): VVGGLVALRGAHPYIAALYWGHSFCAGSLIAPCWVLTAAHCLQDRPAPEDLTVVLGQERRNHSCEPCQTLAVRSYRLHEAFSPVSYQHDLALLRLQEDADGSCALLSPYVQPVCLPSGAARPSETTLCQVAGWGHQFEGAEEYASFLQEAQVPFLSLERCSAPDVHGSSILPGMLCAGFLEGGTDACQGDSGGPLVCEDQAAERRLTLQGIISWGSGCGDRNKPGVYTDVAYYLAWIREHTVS
Plasma Kallikrein, sequence (P03952 391-638): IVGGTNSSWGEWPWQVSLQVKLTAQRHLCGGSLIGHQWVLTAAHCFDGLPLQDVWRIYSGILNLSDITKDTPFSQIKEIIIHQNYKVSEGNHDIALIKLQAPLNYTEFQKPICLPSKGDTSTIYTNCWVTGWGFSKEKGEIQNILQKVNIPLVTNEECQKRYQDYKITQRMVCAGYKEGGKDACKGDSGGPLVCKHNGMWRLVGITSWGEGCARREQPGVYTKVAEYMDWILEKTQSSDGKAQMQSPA
Plasma Kallikrein, sequence (P03952 20-390 partner): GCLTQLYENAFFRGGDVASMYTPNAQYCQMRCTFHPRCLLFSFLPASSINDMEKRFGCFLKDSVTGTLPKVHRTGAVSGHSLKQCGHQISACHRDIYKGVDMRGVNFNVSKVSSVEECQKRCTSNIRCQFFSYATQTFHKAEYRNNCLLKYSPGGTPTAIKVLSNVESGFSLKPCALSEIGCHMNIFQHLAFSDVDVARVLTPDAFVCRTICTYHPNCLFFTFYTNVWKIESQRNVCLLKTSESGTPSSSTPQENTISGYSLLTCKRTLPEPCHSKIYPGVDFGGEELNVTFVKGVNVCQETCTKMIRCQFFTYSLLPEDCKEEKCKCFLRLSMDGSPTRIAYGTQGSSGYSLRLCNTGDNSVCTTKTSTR

Row | Structure (SMILES) | IC50 [1] [µM] | IC50 [2] [µM]
1 | Cc1cc(NCc2ccc(NCC3CCN(C)CC3)nc2)c2cc[nH]c2n1 [Example 1246, 6-methyl-N-((6-(((1-methylpiperidin-4-yl)methyl)amino)pyridin-3-yl)methyl)-1H-pyrrolo[2,3-b]pyridin-4-amine] | > 40 | 3 to 10
2 | COC(=O)c1c[nH]c2nccc(NCc3ccc(NCC4CCN(C)CC4)nc3)c12 [Example 1248, methyl 4-(((6-(((1-methylpiperidin-4-yl)methyl)amino)pyridin-3-yl)methyl)amino)-1H-pyrrolo[2,3-b]pyridine-3-carboxylate] | > 20 | 10 to 40
3 | Cc1cc2c(NCc3ccc(OCC4CCN(C)CC4)nc3)ccnc2[nH]1 [Example 1249, 2-methyl-N-((6-((1-methylpiperidin-4-yl)methoxy)pyridin-3-yl)methyl)-1H-pyrrolo[2,3-b]pyridin-4-amine] | > 40 | 0.3 to 1
4 | CN1CCC(CNc2ccc(CNc3ccnc4[nH]c(C(N)=O)cc34)cn2)CC1 [Example 1252, 4-(((6-(((1-methylpiperidin-4-yl)methyl)amino)pyridin-3-yl)methyl)amino)-1H-pyrrolo[2,3-b]pyridine-2-carboxamide] | > 40 | 10 to 40
5 | Cc1cc2c(NCc3ccc(NCC4CCN(C)CC4)nc3)ncnc2[nH]1 [Example 1254, 6-methyl-N-((6-(((1-methylpiperidin-4-yl)methyl)amino)pyridin-3-yl)methyl)-7H-pyrrolo[2,3-d]pyrimidin-4-amine] | > 40 | 10 to 40
6 | Cc1cnc2[nH]c(Cl)cc2c1NCc1ccc(NCC2CCN(C)CC2)nc1 [Example 1255, 2-chloro-5-methyl-N-((6-(((1-methylpiperidin-4-yl)methyl)amino)pyridin-3-yl)methyl)-1H-pyrrolo[2,3-b]pyridin-4-amine] | > 40 | 3 to 10
7 | CN1CCC(CNc2ccc(CNc3cc(C#N)cc4[nH]ccc34)cn2)CC1 [Example 1256] | > 40 | 10 to 40
8 | CN1CCC(CNc2ccc(CNc3ccncc3)cn2)CC1 [Example 1258, N-((1-methylpiperidin-4-yl)methyl)-5-((pyridin-4-ylamino)methyl)pyridin-2-amine] | > 40 | 10 to 40
9 | CN1CCC(CNc2ccc(CNc3cc(C(F)(F)F)cc4[nH]c(Cl)cc34)cn2)CC1 [Example 1262, 2-chloro-N-((6-(((1-methylpiperidin-4-yl)methyl)amino)pyridin-3-yl)methyl)-6-(trifluoromethyl)-1H-indol-4-amine] | 3 to 10 | 1 to 3
10 | CN1CCC(CNc2ccc(CNc3cc(C(=O)O)nc4[nH]ccc34)cn2)CC1 [Example 1263, 4-(((6-(((1-methylpiperidin-4-yl)methyl)amino)pyridin-3-yl)methyl)amino)-1H-pyrrolo [2,3-b]pyridine-6-carboxylic acid] | > 40 | 10 to 40
11 | Nc1nccc2c(NCc3ccc(N4CCC(CC(F)F)C4)nc3)cccc12 (stereo not drawn) [Example 1265, N5-((6-(3-(2,2-difluoroethyl)pyrrolidin-1-yl)pyridin-3-yl)methyl)isoquinoline-1,5-diamine] | > 40 | 3 to 10
12 | Nc1ncc(Cl)c2cc(NCc3ccc(N4CCC(CC(F)F)C4)nc3)ccc12 (stereo not drawn) [Example 1266, 4-chloro-N6-((6-(3-(2,2-difluoroethyl)pyrrolidin-1-yl)pyridin-3-yl)methyl)isoquinoline-1,6-diamine] | > 40 | 10 to 40
13 | Nc1ncc(Cl)c2cc(NCc3ccc(N4CCn5ncc(O)c5C4)nc3)ccc12 [Example 1267, 5-(5-(((1-amino-4-chloroisoquinolin-6-yl)amino)methyl)pyridin-2-yl)-4,5,6,7-tetrahydropyrazolo[1,5-a]pyrazin-3-ol] | > 40 | 3 to 10
14 | Nc1nccc2c(NCc3ccc(N4CCn5nccc5C4CO)nc3)cccc12 (stereo not drawn) [Example 1268, (5-(5-(((1-aminoisoquinolin-5-yl)amino)methyl)pyridin-2-yl)-4,5,6,7-tetrahydropyrazolo[1,5-a]pyrazin-4-yl)methanol] | > 40 | 3 to 10
15 | Nc1nccc2c(NCc3ccc(N4CCn5ncc(CO)c5C4)nc3)cccc12 [Example 1269, (5-(5-(((1-aminoisoquinolin-5-yl)amino)methyl)pyridin-2-yl)-4,5,6,7-tetrahydropyrazolo[1,5-a]pyrazin-3-yl)methanol] | > 40 | 10 to 40
16 | Nc1ncc(Cl)c2cc(NCc3ccc(N4CC5(CC(O)c6nccn65)C4)nc3)ccc12 (stereo not drawn) [Example 1270, 1-(5-(((1-amino-4-chloroisoquinolin-6-yl)amino)methyl)pyridin-2-yl)-6′,7′-dihydrospiro[azetidine-3,5′-pyrrolo[1,2-a]imidazol]-7′-ol] | > 40 | 10 to 40
17 | Nc1nccc2c(NCc3ccc(N4CCc5nccn5CC4)nc3)cccc12 [Example 1271, N5-((6-(5,6,8,9-tetrahydro-7H-imidazo[1,2-d][1,4]diazepin-7-yl)pyridin-3-yl)methyl)isoquinoline-1,5-diamine] | 10 to 40 | 0.3 to 1
18 | Nc1ncc(Cl)c2cc(NCc3ccc(N4CCc5nccn5CC4)nc3)ccc12 [Example 1272, 4-chloro-N6-((6-(5,6,8,9-tetrahydro-7H-imidazo[1,2-d][1,4]diazepin-7-yl)pyridin-3-yl)methyl)isoquinoline-1,6-diamine] | 10 to 40 | 1 to 3
19 | Nc1ncc(Cl)c2cc(NCc3ccc(N4CCn5nccc5C4CO)nc3)ccc12 (stereo not drawn) [Example 1273, (5-(5-(((1-amino-4-chloroisoquinolin-6-yl)amino)methyl)pyridin-2-yl)-4,5,6,7-tetrahydropyrazolo[1,5-a]pyrazin-4-yl)methanol] | > 40 | 3 to 10
20 | Nc1nccc2c(NCc3ccc(N4CCn5cnnc5C4)nc3)cccc12 [Example 1276, N5-((6-(5,6-dihydro-[1,2,4]triazolo[4,3-a]pyrazin-7(8H)-yl)pyridin-3-yl)methyl)isoquinoline-1,5-diamine] | > 40 | 1 to 3
21 | Cc1cc2c(NCc3ccc(N4CCn5c(nnc5C(F)F)C4)nc3)ccnc2[nH]1 [Example 1278, N-((6-(3-(Difluoromethyl)-5,6-dihydro-[1,2,4]triazolo[4,3-a]pyrazin-7(8H)-yl)pyridin-3-yl)methyl)-2-methyl-1H-pyrrolo[2,3-b]pyridin-4-amine] | > 40 | 1 to 3
22 | FC(F)(F)c1nnc2n1CCN(c1ccc(CNc3ccnc4[nH]c(Cl)cc34)cn1)C2 [Example 1280, 2-chloro-N-((6-(3-(trifluoromethyl)-5,6-dihydro-[1,2,4]triazolo[4,3-a]pyrazin-7(8H)-yl)pyridin-3-yl)methyl)-1H-pyrrolo[2,3-b]pyridin-4-amine] | > 40 | 0.3 to 1
23 | CNc1cc(NCc2ccc(N3CCn4c(nnc4C(F)F)C3)nc2)ccn1 [Example 1281, N4-((6-(3-(difluoromethyl)-5,6-dihydro-[1,2,4]triazolo[4,3-a]pyrazin-7(8H)-yl)pyridin-3-yl)methyl)-N2-methylpyridine-2,4-diamine] | > 40 | 10 to 40
24 | FC(F)(F)c1nnc2n1CCN(c1ccc(CNc3ccc4cnccc4c3)cn1)C2 [Example 1283, N-((6-(3-(trifluoromethyl)-5,6-dihydro-[1,2,4]triazolo[4,3-a]pyrazin-7(8H)-yl)pyridin-3-yl)methyl)isoquinolin-6-amine] | > 40 | 3 to 10
